Earlier results as cited in PMC11007962, “First-in-human study of GFH018, a small molecule inhibitor of transforming growth factor-β receptor I inhibitor, in patients with advanced solid tumors” (BMC Cancer, 2024).

Tests used:
[1] = set-up: method as in PMID 25488804, PMID 26309397; settings: consecutive regimens; cited from earlier work
[2] = test system: advanced HPV-associated malignancies; set-up: method as in PMID 33323462; settings: patients with advanced HPV-associated malignancies; comparators are historical data; cited from earlier work

Row | Molecule | cardiac findings in toxicology studies [1] | ORR [2]
1 | Cc1cccc(-c2nn3c(c2-c2ccnc4ccc(C(N)=O)cc24)CCC3)n1 [galunsertib, reference compound] | cardiac lesions occur | –
2 | nivolumab: historical comparator in HPV-associated malignancies | – | 24%
3 | pembrolizumab: historical comparator in HPV-associated malignancies | – | 24%
4 | bintrafusp alfa: bifunctional fusion protein targeting TGF-β and PD-L1 (antibody, chains of the INN, looked up, V domains shown) VH: EVQLLESGGGLVQPGGSLRLSCAASGFTFSSYIMMWVRQAPGKGLEWVSSIYPSGGITFYADTVKGRFTISRDNSKNTLYLQMNSLRAEDTAVYYCARIKLGTVTTVDYWGQGTLVTVSS VL: QSALTQPASVSGSPGQSITISCTGTSSDVGGYNYVSWYQQHPGKAPKLMIYDVSNRPSGVSNRFSGSKSGNTASLTISGLQAEDEADYYCSSYTSSSTRVFGTGTKVTVL | – | 35.6%
